Data reported in patent US9587205B2, “Activation of peroxygen bleach” (Warwick International Group Limited, priority 2012, dated 2017).

Assay: Peracid (peracetic acid) release rate, iodometric titration
Assay type: physicochemical
Conditions: for Peracid Release (% th. max): time 5 mins, 20° C., 75 rpm, actual PAR/theoretical PAR
Method: The invention is illustrated by determining the rate of peracid release as a proportion of the maximum achievable based on acetyl groups available for reaction with perhydroxyl ion.
In this specification the method used to measure peracid generation is an iodometric titration carried out as follows: 25 g of a mixture of 85% by weight IEC A*base detergent, 10% sodium percarbonate and 5% activator, accurately weighed, is added to it deionised water at 20° C. in a beaker stirred by overhead stirrer at 75 rpm at t=0. After predetermined times from 2 mins, a 50 ml sample of the solution is added to a mixture of 15 ml glacial acetic acid and 5 ml of a 10% solution of potassium iodide at 0° C. and titrated against 0.05M sodium thiosulphate using a suitable indicator for iodine as quickly as possible. The theoretical amount of peracid released (PAR) is calculated as follows:
[formula] for TriAED the moles of peracid released is 1, for TAED it is 2.
The actual amount of peracid released (actual PAR) is calculated from the titre of thiosulphate and its molarity, based on the correlation of 2 moles thiosulphate to 1 mole of peracid. The results reported are of actual PAR/theoretical PAR for each time point.
Testing of peracetic acid release rate is carried out according to the standard test method described above.

| Compound | Peracid Release (% th. max) | peracid release as a proportion of the maximum achievable (within two minutes of being added to water at 20° C.) |
| --- | --- | --- |
| CC(=O)N(CCN(C(C)=O)C(C)=O)C(C)=O [TAED, Tetra-acetylethylene diamine] | 45 % th. max | less than 70% |
| CC(=O)NCCN(C(C)=O)C(C)=O [Tri AED, N,N,N′-triacetylethylene diamine] | 92 % th. max |  |
